In patent US20190298674A1 (Ovid Therapeutics, Inc., priority 2018, published 2019):

Experiments:
in vivo = conditions: plasma
From the text: (§1) “PK” refers to the pharmacokinetic profile. Cmax is defined as the highest plasma drug concentration estimated during an experiment (ng/ml). Tmax is defined as the time when Cmax is estimated (min). AUC0-∞ is the total area under the plasma drug concentration-time curve, from drug administration until the drug is eliminated (ng·hr/ml). The area under the curve is governed by clearance. Clearance is defined as the volume of blood or plasma that is totally cleared of its content of drug per unit time (ml/min).

plasma pharmacokinetics = conditions: in the dose range 5 mg-500 mg
From the text: as §1

half-life (in vivo): 4 to 6 h | AUCs dose proportionality (plasma pharmacokinetics): greater than proportional increase
Structure (SMILES): N[C@H]1C[C@@H](C(=O)O)CC1=C(F)F
